Results taken from PubChem BioAssay (NCI).
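Assay format: 96-well plates, 48-hour exposure. At the GI50, growth is halved. Definition used: TGI = concentration required for complete inhibition of growth.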

Key:
Assay in all cases: DTP human tumour cell line panel, 48 h
[1] = test system: HOP-62 NSCLC
[2] = test system: 786-0 renal
[3] = test system: LOX IMVI melanoma
[4] = test system: MOLT-4 leukemia
[5] = test system: OVCAR-5 ovarian
[6] = test system: HCT-15 colon
[7] = test system: SK-OV-3 ovarian
[8] = test system: SW-620 colon
[9] = test system: SF-539 CNS
[10] = test system: MDA-MB-435
[11] = test system: SK-MEL-28 melanoma
[12] = test system: NCI-H522 lung
[13] = test system: U251 CNS
[14] = test system: HL-60(TB) leukemia
[15] = test system: HOP-92 NSCLC
[16] = test system: HCC-2998 colon
[17] = test system: M14 melanoma
[18] = test system: NCI/ADR-RES ovarian
[19] = test system: ACHN renal
[20] = test system: CCRF-CEM leukemia
[21] = test system: KM12 colon
[22] = test system: UACC-257 melanoma
[23] = test system: NCI-H226 lung
[24] = test system: COLO 205 colon
[25] = test system: T-47D breast
[26] = test system: OVCAR-3 ovarian
[27] = test system: SNB-19 CNS
[28] = test system: UO-31 renal
[29] = test system: PC-3 prostate
[30] = test system: RXF 393 renal
[31] = test system: CAKI-1 renal
[32] = test system: OVCAR-4 ovarian
[33] = test system: HT29 colon
[34] = test system: IGROV1 ovarian
[35] = test system: HCT-116 colon
[36] = test system: UACC-62 melanoma
[37] = test system: MCF7 breast
[38] = test system: A549 NSCLC
[39] = test system: MDA-MB-231 breast
[40] = test system: SF-295 CNS
[41] = test system: RPMI-8226 leukemia
[42] = test system: OVCAR-8 ovarian
[43] = test system: SN12C renal
[44] = test system: NCI-H23 lung
[45] = test system: SK-MEL-2 melanoma
[46] = test system: K-562 leukemia
[47] = test system: TK-10 renal
[48] = test system: DU-145 prostate
[49] = test system: EKVX NSCLC
[50] = test system: SNB-75 CNS
[51] = test system: SF-268 CNS
[52] = test system: NCI-H460 lung

C/C(COc1ccc2oc(-c3ccccc3)cc(=O)c2c1)=N\O showed a GI50 [1] of 69.4 µM, a TGI [1] of over 100 µM and a GI50 [2] of 9.05 µM. The TGI [2] was over 100 µM, the GI50 [3] was 1380 nM and the TGI [3] was 3.34 µM. The GI50 [4] was 89.2 µM, the TGI [4] was over 100 µM and the GI50 [5] was 22 µM. For the same compound, the TGI [5] was 84.7 µM, the GI50 [6] was 7.87 µM and the TGI [6] was over 100 µM. It also gave a GI50 [7] of over 100 µM, a TGI [7] of over 100 µM and a GI50 [8] of 26.2 µM. It also gave a TGI [8] of over 100 µM, a GI50 [9] of 2100 nM and a TGI [9] of 5.8 µM. For the same compound, the GI50 [10] was 556 nM, the TGI [10] was 2940 nM and the GI50 [11] was 23.1 µM. The TGI [11] was over 100 µM, the GI50 [12] was over 100 µM and the TGI [12] was over 100 µM. It also gave a GI50 [13] of 14.4 µM, a TGI [13] of 37.2 µM and a GI50 [14] of 74.5 µM. For the same compound, the TGI [14] was over 100 µM, the GI50 [15] was 37.4 µM and the TGI [15] was over 100 µM. For the same compound, the GI50 [16] was 19.5 µM, the TGI [16] was over 100 µM and the GI50 [17] was 15.3 µM. The TGI [17] was 46.3 µM, the GI50 [18] was 36 µM and the TGI [18] was over 100 µM. It also gave a GI50 [19] of over 100 µM, a TGI [19] of over 100 µM and a GI50 [20] of 41.4 µM. For the same compound, the TGI [20] was over 100 µM, the GI50 [21] was 2390 nM and the TGI [21] was 39.7 µM. It also gave a GI50 [22] of over 100 µM, a TGI [22] of over 100 µM and a GI50 [23] of over 100 µM. For the same compound, the TGI [23] was over 100 µM, the GI50 [24] was 11.8 µM and the TGI [24] was 52.9 µM. The GI50 [25] was 16.2 µM, the TGI [25] was over 100 µM and the GI50 [26] was 7.39 µM. It also gave a TGI [26] of 54.2 µM, a GI50 [27] of 26.7 µM and a TGI [27] of over 100 µM. The GI50 [28] was 11.2 µM, the TGI [28] was over 100 µM and the GI50 [29] was 26.6 µM. For the same compound, the TGI [29] was 70.5 µM, the GI50 [30] was over 100 µM and the TGI [30] was over 100 µM. For the same compound, the GI50 [31] was 32.5 µM, the TGI [31] was over 100 µM and the GI50 [32] was over 100 µM. It also gave a TGI [32] of over 100 µM, a GI50 [33] of 22.7 µM and a TGI [33] of over 100 µM. For the same compound, the GI50 [34] was 43.8 µM, the TGI [34] was over 100 µM and the GI50 [35] was 25.3 µM. For the same compound, the TGI [35] was over 100 µM, the GI50 [36] was 16.8 µM and the TGI [36] was 81.4 µM. The GI50 [37] was 10.1 µM, the TGI [37] was 36.7 µM and the GI50 [38] was 45.4 µM. For the same compound, the TGI [38] was over 100 µM, the GI50 [39] was 14.1 µM and the TGI [39] was 36.4 µM. For the same compound, the GI50 [40] was 12.8 µM, the TGI [40] was 33.6 µM and the GI50 [41] was 22.3 µM. It also gave a TGI [41] of 62.3 µM, a GI50 [42] of over 100 µM and a TGI [42] of over 100 µM. For the same compound, the GI50 [43] was 24 µM, the TGI [43] was over 100 µM and the GI50 [44] was 88.5 µM. The TGI [44] was over 100 µM, the GI50 [45] was over 100 µM and the TGI [45] was over 100 µM. The GI50 [46] was 70.7 µM, the TGI [46] was over 100 µM and the GI50 [47] was 22.6 µM. For the same compound, the TGI [47] was 94.7 µM, the GI50 [48] was 48.5 µM and the TGI [48] was over 100 µM. It also gave a GI50 [49] of 2890 nM, a TGI [49] of 26.6 µM and a GI50 [50] of over 100 µM. It also gave a TGI [50] of over 100 µM, a GI50 [51] of 24.3 µM and a TGI [51] of over 100 µM. For the same compound, the GI50 [52] was 14.3 µM and the TGI [52] was over 100 µM.
